Experimental data as given in PubChem BioAssay AID288 (DTP/NCI, 2004).
“And” between values parts separate entries of the source, which are not always exact repeats. Equal entries are not always repeated. Inconclusive results are not listed.

System: BDF1 mice, M5076 sarcoma s.c., survival/tumor T/C
Test: NCI In Vivo Anticancer Drug Screen. Data for tumor model Sarcoma M5076 (subcutaneous) in B6D2F1 (BDF1) mice
Protocol: The antitumor activity of compounds was measured in mice bearing transplantable tumors. Survival or tumor size were measured and the results are expressed as the measurement made in the treated group (T) divided by the measurement made in the vehicle treated control group (C). The tumor model used in this assay is Sarcoma M5076 (subcutaneous) in B6D2F1 (BDF1) mice

[1] = endpoint: mean tumor weight, dose: 75.0 mg/kg/injection, schedule: Q02DX011 (ip), vehicle: saline, higher = larger tumour
[2] = endpoint: mean tumor weight, dose: 150.0 mg/kg/injection, schedule: Q02DX011 (ip), vehicle: saline, higher = larger tumour
[3] = endpoint: mean tumor weight, dose: 300.0 mg/kg/injection, schedule: Q02DX011 (ip), vehicle: saline, higher = larger tumour
[4] = endpoint: median tumor weight (est.), dose: 75.0 mg/kg/injection, schedule: Q02DX011 (ip), vehicle: saline, higher = larger tumour
[5] = endpoint: median tumor weight (est.), dose: 150.0 mg/kg/injection, schedule: Q02DX011 (ip), vehicle: saline, higher = larger tumour
[6] = endpoint: median tumor weight (est.), dose: 300.0 mg/kg/injection, schedule: Q02DX011 (ip), vehicle: saline, higher = larger tumour
[7] = endpoint: median survival time, dose: 50.0 mg/kg/injection, schedule: Q01DX009 (ip), vehicle: saline with Tween-80, higher = longer survival
[8] = endpoint: median survival time, dose: 100.0 mg/kg/injection, schedule: Q01DX009 (ip), vehicle: saline with Tween-80, higher = longer survival
[9] = endpoint: median survival time, dose: 200.0 mg/kg/injection, schedule: Q01DX009 (ip), vehicle: saline with Tween-80, higher = longer survival
[10] = endpoint: median tumor weight (est.), dose: 100.0 mg/kg/injection, schedule: Q01DX009 (ip), vehicle: saline with Tween-80, higher = larger tumour

CC(C)[C@](O)(C(=O)OCC1=CC[N+]2([O-])CC[C@@H](O)[C@@H]12)[C@H](C)O (stereo partly specified)
T/C [1]: 96 % of control | T/C (endpoint: mean tumor weight, dose: 100.0 mg/kg/injection, schedule: Q02DX011 (ip), vehicle: saline, higher = larger tumour): 53 % of control | T/C [2]: 82 % of control | T/C (endpoint: mean tumor weight, dose: 200.0 mg/kg/injection, schedule: Q02DX011 (ip), vehicle: saline, higher = larger tumour): 37 % of control | T/C [3]: 6 % of control | T/C (endpoint: mean tumor weight, dose: 400.0 mg/kg/injection, schedule: Q02DX011 (ip), vehicle: saline, higher = larger tumour): 13 % of control | T/C (endpoint: median survival time, dose: 200.0 mg/kg/injection, schedule: Q01DX007 (ip), vehicle: saline, higher = longer survival): 95 % of control | T/C (endpoint: median survival time, dose: 400.0 mg/kg/injection, schedule: Q01DX007 (ip), vehicle: saline, higher = longer survival): 117 % of control | T/C (endpoint: median survival time, dose: 540.0 mg/kg/injection, schedule: Q04DX003 (ip), vehicle: saline, higher = longer survival): 104 % of control | T/C (endpoint: median survival time, dose: 800.0 mg/kg/injection, schedule: Q01DX007 (ip), vehicle: saline, higher = longer survival): 110 % of control | T/C (endpoint: median survival time, dose: 800.0 mg/kg/injection, schedule: Q04DX003 (ip), vehicle: saline, higher = longer survival): 112 % of control | T/C (endpoint: median survival time, dose: 1200.0 mg/kg/injection, schedule: Q04DX003 (ip), vehicle: saline, higher = longer survival): 114 % of control | T/C [4]: 89 % of control | T/C (endpoint: median tumor weight (est.), dose: 100.0 mg/kg/injection, schedule: Q02DX011 (ip), vehicle: saline, higher = larger tumour): 56 % of control | T/C [5]: 82 % of control | T/C (endpoint: median tumor weight (est.), dose: 200.0 mg/kg/injection, schedule: Q02DX011 (ip), vehicle: saline, higher = larger tumour): 39 % of control | T/C [6]: 3 % of control | T/C (endpoint: median tumor weight (est.), dose: 400.0 mg/kg/injection, schedule: Q02DX011 (ip), vehicle: saline, higher = larger tumour): 14 % of control

O=C[C@@H](CO)O[C@H](C=O)n1cnc2c(=O)[nH]cnc21
T/C [1]: 93 % of control | T/C [2]: 105 % of control | T/C [3]: 54 % of control | T/C [4]: 376 % of control | T/C [5]: 385 % of control | T/C [6]: 266 % of control

O=c1[nH]cc(F)c(=O)[nH]1
T/C (endpoint: median survival time, dose: 6.25 mg/kg/injection, schedule: Q04DX006 (ip), vehicle: saline, higher = longer survival): 105 % of control | T/C (endpoint: median survival time, dose: 12.5 mg/kg/injection, schedule: Q02DX033 (ip), vehicle: saline, higher = longer survival): 101 % of control | T/C (endpoint: median survival time, dose: 12.5 mg/kg/injection, schedule: Q04DX006 (ip), vehicle: saline, higher = longer survival): 100 % of control | T/C (endpoint: median survival time, dose: 25.0 mg/kg/injection, schedule: Q02DX033 (ip), vehicle: saline, higher = longer survival): 105 % of control | T/C (endpoint: median survival time, dose: 25.0 mg/kg/injection, schedule: Q04DX006 (ip), vehicle: saline, higher = longer survival): 108 % of control | T/C (endpoint: median survival time, dose: 50.0 mg/kg/injection, schedule: Q04DX006 (ip), vehicle: saline, higher = longer survival): 105 % of control

N[C@@H](Cc1ccc(N(CCCl)CCCl)cc1)C(=O)O
T/C (endpoint: median survival time, dose: 0.75 mg/kg/injection, schedule: Q04DX006 (ip), vehicle: saline, higher = longer survival): 105 % of control | T/C (endpoint: median survival time, dose: 1.5 mg/kg/injection, schedule: Q04DX006 (ip), vehicle: saline, higher = longer survival): 111 % of control | T/C (endpoint: median survival time, dose: 3.0 mg/kg/injection, schedule: Q02DX033 (ip), vehicle: saline, higher = longer survival): 230 % of control | T/C (endpoint: median survival time, dose: 3.0 mg/kg/injection, schedule: Q04DX006 (ip), vehicle: saline, higher = longer survival): 121 % of control | T/C (endpoint: median survival time, dose: 3.24 mg/kg/injection, schedule: Q01DX001 (ip), vehicle: saline, higher = longer survival): 154 % of control and 155 % of control

CCOC(=O)CCC1(C(=O)OC)C(=O)CCCCCCCC1C(=O)OC (stereo unspecified)
T/C [7]: 100 % of control | T/C [8]: 100 % of control | T/C [9]: 115 % of control

Cc1ncc([N+](=O)[O-])n1CCO
T/C (endpoint: median survival time, dose: 750.0 mg/kg/injection, schedule: Q01DX001 (ip), vehicle: saline, higher = longer survival): 116 % of control | T/C (endpoint: median survival time, dose: 1000.0 mg/kg/injection, schedule: Q01DX001 (ip), vehicle: saline with Tween-80, higher = longer survival): 105 % of control and 85 % of control | T/C (endpoint: median survival time, dose: 1500.0 mg/kg/injection, schedule: Q01DX001 (ip), vehicle: saline, higher = longer survival): 89 % of control and 90 % of control | T/C (endpoint: median survival time, dose: 2000.0 mg/kg/injection, schedule: Q01DX001 (ip), vehicle: saline with Tween-80, higher = longer survival): 91 % of control | T/C (endpoint: median survival time, dose: 2000.0 mg/kg/injection, schedule: Q01DX001 (ip), vehicle: saline, higher = longer survival): 87 % of control (2×) and 89 % of control | T/C (endpoint: median survival time, dose: 2500.0 mg/kg/injection, schedule: Q01DX001 (ip), vehicle: saline with Tween-80, higher = longer survival): 78 % of control

COC(=O)[C@@]12OC[C@]34[C@H]([C@@H](O)[C@@H]1O)[C@@]1(C)CC(=O)C(O)=C(C)[C@@H]1C[C@H]3OC(=O)[C@H](OC(=O)/C=C(\C)C(C)C)[C@@H]24
T/C (endpoint: mean tumor weight, dose: 0.5 mg/kg/injection, schedule: Q02DX011 (ip), vehicle: saline with Tween-80, higher = larger tumour): 114 % of control | T/C (endpoint: mean tumor weight, dose: 1.0 mg/kg/injection, schedule: Q02DX011 (ip), vehicle: saline with Tween-80, higher = larger tumour): 94 % of control | T/C (endpoint: mean tumor weight, dose: 2.0 mg/kg/injection, schedule: Q02DX011 (ip), vehicle: saline with Tween-80, higher = larger tumour): 26 % of control

CC1(C)OC(C)(C)c2c1nnc(-c1ccccc1)[n+]2[O-]
T/C [7]: 93 % of control | T/C [8]: 105 % of control | T/C [9]: 103 % of control | T/C [10]: 84 % of control | T/C (endpoint: median tumor weight (est.), dose: 200.0 mg/kg/injection, schedule: Q01DX009 (ip), vehicle: saline with Tween-80, higher = larger tumour): 60 % of control

CNc1nc(N(C)C)nc(N(C)C)n1
T/C (endpoint: median tumor weight (est.), dose: 15.0 mg/kg/injection, schedule: Q02DX011 (ip), vehicle: water, higher = larger tumour): 87 % of control | T/C (endpoint: median tumor weight (est.), dose: 30.0 mg/kg/injection, schedule: Q02DX011 (ip), vehicle: water, higher = larger tumour): 85 % of control | T/C (endpoint: median tumor weight (est.), dose: 60.0 mg/kg/injection, schedule: Q02DX011 (ip), vehicle: water, higher = larger tumour): 43 % of control | T/C (endpoint: median tumor weight (est.), dose: 120.0 mg/kg/injection, schedule: Q02DX011 (ip), vehicle: water, higher = larger tumour): 13 % of control

C[C@]12C=CC(=O)C=C1CC[C@@H]1[C@@H]2C(=O)C[C@@]2(C)[C@H]1CC[C@]2(O)C(=O)CO
T/C (endpoint: mean tumor weight, dose: 12.5 mg/kg/injection, schedule: Q02DX011 (ip), vehicle: saline, higher = larger tumour): 82 % of control | T/C (endpoint: mean tumor weight, dose: 25.0 mg/kg/injection, schedule: Q02DX011 (ip), vehicle: saline, higher = larger tumour): 52 % of control | T/C (endpoint: mean tumor weight, dose: 50.0 mg/kg/injection, schedule: Q02DX011 (ip), vehicle: saline, higher = larger tumour): 59 % of control

CCCNC(=O)ON1C(=O)C2C3C=CC(C3)C2C1=O (stereo unspecified)
T/C (endpoint: median survival time, dose: 3.12 mg/kg/injection, schedule: Q01DX009 (ip), vehicle: saline with Tween-80, higher = longer survival): 98 % of control | T/C (endpoint: median survival time, dose: 6.25 mg/kg/injection, schedule: Q01DX009 (ip), vehicle: saline with Tween-80, higher = longer survival): 95 % of control | T/C (endpoint: median survival time, dose: 12.5 mg/kg/injection, schedule: Q01DX009 (ip), vehicle: saline with Tween-80, higher = longer survival): 103 % of control | T/C (endpoint: median tumor weight (est.), dose: 3.12 mg/kg/injection, schedule: Q01DX009 (ip), vehicle: saline with Tween-80, higher = larger tumour): 93 % of control | T/C (endpoint: median tumor weight (est.), dose: 6.25 mg/kg/injection, schedule: Q01DX009 (ip), vehicle: saline with Tween-80, higher = larger tumour): 107 % of control

COc1cc(-c2ccc(NC(=O)NC3CC3)c(OC)c2)ccc1NC(=O)NC1CC1
T/C [7]: 101 % of control | T/C [8]: 93 % of control | T/C [9]: 88 % of control | T/C (endpoint: median tumor weight (est.), dose: 50.0 mg/kg/injection, schedule: Q01DX009 (ip), vehicle: saline with Tween-80, higher = larger tumour): 101 % of control | T/C [10]: 84 % of control

NC(CSC(c1ccccc1)(c1ccccc1)c1ccccc1)C(=O)O (stereo unspecified)
T/C (endpoint: mean tumor weight, dose: 17.5 mg/kg/injection, schedule: Q02DX011 (ip), vehicle: acid diluted with saline, higher = larger tumour): 103 % of control | T/C (endpoint: mean tumor weight, dose: 17.5 mg/kg/injection, schedule: Q02DX011 (ip), vehicle: saline, higher = larger tumour): 71 % of control | T/C (endpoint: mean tumor weight, dose: 35.0 mg/kg/injection, schedule: Q02DX011 (ip), vehicle: acid diluted with saline, higher = larger tumour): 87 % of control | T/C (endpoint: mean tumor weight, dose: 35.0 mg/kg/injection, schedule: Q02DX011 (ip), vehicle: saline, higher = larger tumour): 53 % of control | T/C (endpoint: mean tumor weight, dose: 70.0 mg/kg/injection, schedule: Q02DX011 (ip), vehicle: acid diluted with saline, higher = larger tumour): 24 % of control | T/C (endpoint: mean tumor weight, dose: 70.0 mg/kg/injection, schedule: Q02DX011 (ip), vehicle: saline, higher = larger tumour): 37 % of control | T/C (endpoint: median tumor weight (est.), dose: 17.5 mg/kg/injection, schedule: Q02DX011 (ip), vehicle: acid diluted with saline, higher = larger tumour): 490 % of control | T/C (endpoint: median tumor weight (est.), dose: 17.5 mg/kg/injection, schedule: Q02DX011 (ip), vehicle: saline, higher = larger tumour): 65 % of control | T/C (endpoint: median tumor weight (est.), dose: 35.0 mg/kg/injection, schedule: Q02DX011 (ip), vehicle: acid diluted with saline, higher = larger tumour): 336 % of control | T/C (endpoint: median tumor weight (est.), dose: 35.0 mg/kg/injection, schedule: Q02DX011 (ip), vehicle: saline, higher = larger tumour): 49 % of control | T/C (endpoint: median tumor weight (est.), dose: 70.0 mg/kg/injection, schedule: Q02DX011 (ip), vehicle: acid diluted with saline, higher = larger tumour): 293 % of control | T/C (endpoint: median tumor weight (est.), dose: 70.0 mg/kg/injection, schedule: Q02DX011 (ip), vehicle: saline, higher = larger tumour): 5 % of control

O=C1C=CN(C2OC(CO)C(O)C2O)C(=O)C1 (stereo unspecified)
T/C [2]: 42 % of control and 46 % of control | T/C [3]: 44 % of control and 51 % of control | T/C [4]: 78 % of control and 82 % of control | T/C [5]: 43 % of control and 48 % of control | T/C [6]: 38 % of control and 46 % of control
